The values that follow come from ChEMBL document CHEMBL4387741, “Optimization of novel reversible Bruton's tyrosine kinase inhibitors identified using Tethering-fragment-based screens” (Bioorg Med Chem, 2019).

Data set [1] has as its system Epidermal growth factor receptor (Homo sapiens), P00533 [UNDEFINED MUTATION]. Kind of data set: Inhibition of human partial length EGFR S752-I759del mutant expressed in bacterial expression system at 10 uM by Kinomescan method relative to control.
Data set [2] deals with Fibroblast growth factor receptor 3 (Homo sapiens), P22607 [G697C]. Kind of data set: Inhibition of human partial length FGFR3 G697C mutant (R442 to S771 residues) expressed in bacterial expression system at 10 uM by Kinomescan method relative to control.
In data set [3] the test system is Receptor-type tyrosine-protein kinase FLT3 (Homo sapiens), P36888 [D835Y]. Nature of the data set: Inhibition of human partial length FLT3 D835Y mutant (Q580 to Y969 residues) expressed in bacterial expression system at 10 uM by Kinomescan method relative to control.
In data set [4] the target is Interleukin-1 receptor-associated kinase 1 (Homo sapiens) (UniProt P51617). Nature of the data set: Inhibition of wild-type human partial length IRAK1 (R194 to S712 residues) expressed in mammalian expression system at 10 uM by Kinomescan method relative to control.
For data set [5], the target named is Leukocyte tyrosine kinase receptor (Homo sapiens) (UniProt P29376). Nature of the data set: Inhibition of wild-type human partial length LTK (P422 to S744 residues) expressed in bacterial expression system at 10 uM by Kinomescan method relative to control.
The target in data set [6] is Serine/threonine-protein kinase 4 (Homo sapiens) (UniProt Q13043). Nature of the data set: Inhibition of wild-type human full length MST1 (M1 to F487 residues) expressed in bacterial expression system at 10 uM by Kinomescan method relative to control.
Data set [7] addresses Phosphatidylinositol 5-phosphate 4-kinase type-2 gamma (Homo sapiens) (UniProt Q8TBX8). Kind of data set: Inhibition of wild-type human partial length PIP5K2C (M1 to A421 residues) expressed in mammalian expression system at 10 uM by Kinomescan method relative to control.
Data set [8] concerns the target Serine/threonine-protein kinase 35 (Homo sapiens) (UniProt Q8TDR2). Kind of data set: Inhibition of wild-type human partial length STK35 (G182 to A534 residues) expressed in bacterial expression system at 10 uM by Kinomescan method relative to control.
Data set [9] has as its target Tyrosine-protein kinase SYK (Homo sapiens) (UniProt P43405). Kind of data set: Inhibition of wild-type human partial length SYK (D354 to N635 residues) expressed in bacterial expression system at 10 uM by Kinomescan method relative to control.
In data set [10] the target is TGF-beta receptor type-2 (Homo sapiens) (UniProt P37173). Kind of data set: Inhibition of wild-type human partial length TGFBR2 (I218 to K567 residues) expressed in bacterial expression system at 10 uM by Kinomescan method relative to control.
The target of data set [11] is Dual specificity protein kinase TTK (Homo sapiens) (UniProt P33981). Kind of data set: Inhibition of wild-type human partial length TTK (N505 to V798 residues) expressed in bacterial expression system at 10 uM by Kinomescan method relative to control.
The target in data set [12] is Non-receptor tyrosine-protein kinase TYK2 (Homo sapiens) (UniProt P29597). Nature of the data set: Inhibition of wild-type human partial length TYK2 JH2 pseudokinase domain (G556 to D888 residues) expressed in mammalian expression system at 10 uM by Kinomescan method relative to control.
Data set [13] is described as follows: Solubility of the compound at pH 6.8. In kind it is physicochemical. The settings on record: buffer.
Data set [14] deals with Tyrosine-protein kinase ABL2 (Homo sapiens) (UniProt P42684). Nature of the data set: Inhibition of wild-type human ABL2 (A248 to G542 residues) expressed in bacterial expression system at 1 uM by Kinomescan method relative to control.
In data set [15] the target is Calcium/calmodulin-dependent protein kinase type II subunit beta (Homo sapiens) (UniProt Q13554). Nature of the data set: Inhibition of wild-type human partial length CAMK2B (M1 to Q380 residues) expressed in bacterial expression system at 1 uM by Kinomescan method relative to control.
Data set [16] concerns the target Casein kinase I isoform alpha-like (Homo sapiens) (UniProt Q8N752). Kind of data set: Inhibition of wild-type human full length CSNK1A1L (M1 to N337 residues) expressed in bacterial expression system at 1 uM by Kinomescan method relative to control.
Data set [17] addresses Death-associated protein kinase 3 (Homo sapiens) (UniProt O43293). Kind of data set: Inhibition of wild-type human partial length DAPK3 (M1 to A277 residues) expressed in bacterial expression system at 1 uM by Kinomescan method relative to control.
The target of data set [18] is Discoidin domain-containing receptor 2 (Homo sapiens) (UniProt Q16832). Nature of the data set: Inhibition of wild-type human partial length DDR2 (V555 to E855 residues) expressed in mammalian expression system at 1 uM by Kinomescan method relative to control.
For data set [19], the target named is Serine/threonine-protein kinase MRCK gamma (Homo sapiens) (UniProt Q6DT37). Nature of the data set: Inhibition of wild-type human partial length DMPK2 (S46 to S408 residues) expressed in bacterial expression system at 1 uM by Kinomescan method relative to control.
The target of data set [20] is Serine/threonine-protein kinase 17A (Homo sapiens) (UniProt Q9UEE5). Nature of the data set: Inhibition of wild-type human partial length DRAK1 (R32 to E363 residues) expressed in bacterial expression system at 1 uM by Kinomescan method relative to control.
The test system of data set [21] is Epidermal growth factor receptor (Homo sapiens), P00533 [UNDEFINED MUTATION]. Nature of the data set: Inhibition of human partial length EGFR L747-T751del/Sins mutant expressed in bacterial expression system at 1 uM by Kinomescan method relative to control.
Data set [22] concerns the target Ephrin type-B receptor 2 (Homo sapiens) (UniProt P29323). Kind of data set: Inhibition of wild-type human partial length EPHB2 (I597 to L902 residues) expressed in bacterial expression system at 1 uM by Kinomescan method relative to control.
Data set [23] relates to Hepatocyte growth factor receptor (Homo sapiens), P08581 [Y1235D]. Kind of data set: Inhibition of human partial length MET Y1235D mutant (D1010 to S1367 residues) expressed in bacterial expression system at 1 uM by Kinomescan method relative to control.
The target of data set [24] is Serine/threonine-protein kinase 3 (Homo sapiens) (UniProt Q13188). Kind of data set: Inhibition of wild-type human partial length MST2 (D17 to E318 residues) expressed in bacterial expression system at 1 uM by Kinomescan method relative to control.
The target in data set [25] is Serine/threonine-protein kinase PAK 4 (Homo sapiens) (UniProt O96013). Kind of data set: Inhibition of wild-type human partial length PAK4 (Q144 to R438 residues) expressed in bacterial expression system at 1 uM by Kinomescan method relative to control.
Data set [26] deals with Cyclin-dependent kinase 16 (Homo sapiens) (UniProt Q00536). Kind of data set: Inhibition of wild-type human partial length PCTK1 (G160 to A474 residues) expressed in mammalian expression system at 1 uM by Kinomescan method relative to control.
In data set [27] the target is Ribosomal protein S6 kinase alpha-2 (Homo sapiens) (UniProt Q15349). Nature of the data set: Inhibition of wild-type human partial length C-terminal RSK3 kinase domain 2 (V403 to K700 residues) expressed in bacterial expression system at 1 uM by Kinomescan method relative to control.
The target in data set [28] is NT-3 growth factor receptor (Homo sapiens) (UniProt Q16288). Kind of data set: Inhibition of wild-type human partial length TRKC (Q531 to G825 residues) expressed in mammalian expression system at 1 uM by Kinomescan method relative to control.

Molecules are shown by their SMILES.

Chain of Epidermal growth factor receptor (Homo sapiens), P00533 [UNDEFINED MUTATION] (P00533 whole entry, looked up, stated change not applied, the tested form may be a part): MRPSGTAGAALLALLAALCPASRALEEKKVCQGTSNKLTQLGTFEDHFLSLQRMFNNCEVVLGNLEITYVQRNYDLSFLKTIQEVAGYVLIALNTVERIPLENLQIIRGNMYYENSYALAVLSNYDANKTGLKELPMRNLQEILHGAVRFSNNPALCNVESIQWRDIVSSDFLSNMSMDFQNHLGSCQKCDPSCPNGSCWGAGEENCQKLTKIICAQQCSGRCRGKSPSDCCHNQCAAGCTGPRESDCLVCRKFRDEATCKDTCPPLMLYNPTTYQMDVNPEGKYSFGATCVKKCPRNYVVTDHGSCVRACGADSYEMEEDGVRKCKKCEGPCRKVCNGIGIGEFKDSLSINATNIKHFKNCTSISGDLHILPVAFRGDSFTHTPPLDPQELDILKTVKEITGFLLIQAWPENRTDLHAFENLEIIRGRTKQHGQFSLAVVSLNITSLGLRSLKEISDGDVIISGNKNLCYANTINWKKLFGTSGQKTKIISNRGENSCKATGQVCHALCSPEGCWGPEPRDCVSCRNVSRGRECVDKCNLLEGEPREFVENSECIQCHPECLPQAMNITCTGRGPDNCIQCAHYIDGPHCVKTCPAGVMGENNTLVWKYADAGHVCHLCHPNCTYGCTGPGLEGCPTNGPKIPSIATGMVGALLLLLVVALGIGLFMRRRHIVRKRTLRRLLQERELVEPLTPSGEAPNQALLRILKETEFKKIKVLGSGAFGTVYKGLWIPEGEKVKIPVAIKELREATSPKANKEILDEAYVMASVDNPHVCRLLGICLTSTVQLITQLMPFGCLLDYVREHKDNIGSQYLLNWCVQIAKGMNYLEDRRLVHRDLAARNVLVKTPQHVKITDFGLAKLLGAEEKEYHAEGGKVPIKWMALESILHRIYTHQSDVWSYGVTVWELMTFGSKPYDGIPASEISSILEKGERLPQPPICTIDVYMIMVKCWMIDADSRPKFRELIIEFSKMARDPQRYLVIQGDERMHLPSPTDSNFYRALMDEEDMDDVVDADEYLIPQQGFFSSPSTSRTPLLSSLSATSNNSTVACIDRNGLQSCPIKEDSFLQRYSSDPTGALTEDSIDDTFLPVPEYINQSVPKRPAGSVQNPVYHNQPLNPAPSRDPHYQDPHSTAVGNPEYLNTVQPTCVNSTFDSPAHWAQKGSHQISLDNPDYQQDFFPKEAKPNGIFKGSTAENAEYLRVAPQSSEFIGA
Chain of Ephrin type-B receptor 2 (Homo sapiens) (P29323 whole entry, the tested form may be a part): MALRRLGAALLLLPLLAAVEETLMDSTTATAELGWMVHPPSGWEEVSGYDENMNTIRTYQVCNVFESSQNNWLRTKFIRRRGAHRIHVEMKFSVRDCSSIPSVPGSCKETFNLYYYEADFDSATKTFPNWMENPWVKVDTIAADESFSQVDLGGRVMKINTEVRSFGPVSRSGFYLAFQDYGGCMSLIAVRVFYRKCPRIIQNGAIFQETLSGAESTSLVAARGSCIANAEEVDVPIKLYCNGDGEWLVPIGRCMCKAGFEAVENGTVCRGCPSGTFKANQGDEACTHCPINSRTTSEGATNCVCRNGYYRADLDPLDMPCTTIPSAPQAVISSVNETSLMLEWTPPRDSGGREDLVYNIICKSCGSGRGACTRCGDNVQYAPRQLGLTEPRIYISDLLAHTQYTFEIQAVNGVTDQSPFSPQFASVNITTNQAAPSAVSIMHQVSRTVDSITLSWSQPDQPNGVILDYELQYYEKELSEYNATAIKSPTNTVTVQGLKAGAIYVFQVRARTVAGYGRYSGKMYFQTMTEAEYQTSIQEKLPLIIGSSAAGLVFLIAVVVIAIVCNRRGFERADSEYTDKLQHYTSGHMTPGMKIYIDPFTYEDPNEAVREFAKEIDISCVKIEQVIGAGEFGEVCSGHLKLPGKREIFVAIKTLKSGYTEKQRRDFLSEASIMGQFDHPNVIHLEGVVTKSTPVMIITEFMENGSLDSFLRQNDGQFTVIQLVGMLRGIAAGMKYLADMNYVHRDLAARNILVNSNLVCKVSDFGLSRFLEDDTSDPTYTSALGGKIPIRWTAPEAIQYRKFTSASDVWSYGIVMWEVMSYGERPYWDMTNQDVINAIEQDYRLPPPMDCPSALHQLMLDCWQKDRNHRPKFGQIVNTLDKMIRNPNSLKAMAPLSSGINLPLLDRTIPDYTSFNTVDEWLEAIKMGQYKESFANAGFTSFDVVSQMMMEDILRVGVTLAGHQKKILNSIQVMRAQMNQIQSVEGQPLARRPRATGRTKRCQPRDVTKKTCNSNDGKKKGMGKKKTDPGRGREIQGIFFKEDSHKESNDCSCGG
Chain of TGF-beta receptor type-2 (Homo sapiens) (P37173 whole entry, the tested form may be a part): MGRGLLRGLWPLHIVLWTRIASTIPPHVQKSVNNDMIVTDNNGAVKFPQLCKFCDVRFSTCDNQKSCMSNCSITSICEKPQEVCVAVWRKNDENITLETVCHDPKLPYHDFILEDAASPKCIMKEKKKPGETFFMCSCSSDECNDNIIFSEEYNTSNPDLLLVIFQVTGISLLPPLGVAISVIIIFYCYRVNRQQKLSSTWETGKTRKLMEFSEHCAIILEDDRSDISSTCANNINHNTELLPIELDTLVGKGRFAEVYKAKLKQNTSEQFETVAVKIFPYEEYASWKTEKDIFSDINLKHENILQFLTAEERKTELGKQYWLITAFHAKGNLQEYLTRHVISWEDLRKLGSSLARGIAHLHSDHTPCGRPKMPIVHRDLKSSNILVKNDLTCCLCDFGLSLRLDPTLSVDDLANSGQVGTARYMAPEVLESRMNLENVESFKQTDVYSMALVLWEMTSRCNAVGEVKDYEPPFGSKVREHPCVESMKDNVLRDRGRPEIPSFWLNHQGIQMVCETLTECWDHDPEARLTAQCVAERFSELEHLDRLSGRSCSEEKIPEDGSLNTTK
Chain of Phosphatidylinositol 5-phosphate 4-kinase type-2 gamma (Homo sapiens) (Q8TBX8 whole entry, the tested form may be a part): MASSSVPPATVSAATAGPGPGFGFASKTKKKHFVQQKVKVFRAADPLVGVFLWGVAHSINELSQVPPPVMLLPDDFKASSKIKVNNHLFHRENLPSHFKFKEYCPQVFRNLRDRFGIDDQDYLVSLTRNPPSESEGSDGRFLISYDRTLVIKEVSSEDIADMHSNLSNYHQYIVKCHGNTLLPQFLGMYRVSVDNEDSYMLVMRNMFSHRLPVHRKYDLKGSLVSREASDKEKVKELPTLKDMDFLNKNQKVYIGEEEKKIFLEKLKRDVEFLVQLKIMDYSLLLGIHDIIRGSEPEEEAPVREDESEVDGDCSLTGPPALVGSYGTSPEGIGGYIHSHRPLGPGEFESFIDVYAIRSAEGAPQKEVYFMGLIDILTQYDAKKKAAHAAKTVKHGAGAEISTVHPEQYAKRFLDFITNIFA
Chain of NT-3 growth factor receptor (Homo sapiens) (Q16288 32-839 limits assumed): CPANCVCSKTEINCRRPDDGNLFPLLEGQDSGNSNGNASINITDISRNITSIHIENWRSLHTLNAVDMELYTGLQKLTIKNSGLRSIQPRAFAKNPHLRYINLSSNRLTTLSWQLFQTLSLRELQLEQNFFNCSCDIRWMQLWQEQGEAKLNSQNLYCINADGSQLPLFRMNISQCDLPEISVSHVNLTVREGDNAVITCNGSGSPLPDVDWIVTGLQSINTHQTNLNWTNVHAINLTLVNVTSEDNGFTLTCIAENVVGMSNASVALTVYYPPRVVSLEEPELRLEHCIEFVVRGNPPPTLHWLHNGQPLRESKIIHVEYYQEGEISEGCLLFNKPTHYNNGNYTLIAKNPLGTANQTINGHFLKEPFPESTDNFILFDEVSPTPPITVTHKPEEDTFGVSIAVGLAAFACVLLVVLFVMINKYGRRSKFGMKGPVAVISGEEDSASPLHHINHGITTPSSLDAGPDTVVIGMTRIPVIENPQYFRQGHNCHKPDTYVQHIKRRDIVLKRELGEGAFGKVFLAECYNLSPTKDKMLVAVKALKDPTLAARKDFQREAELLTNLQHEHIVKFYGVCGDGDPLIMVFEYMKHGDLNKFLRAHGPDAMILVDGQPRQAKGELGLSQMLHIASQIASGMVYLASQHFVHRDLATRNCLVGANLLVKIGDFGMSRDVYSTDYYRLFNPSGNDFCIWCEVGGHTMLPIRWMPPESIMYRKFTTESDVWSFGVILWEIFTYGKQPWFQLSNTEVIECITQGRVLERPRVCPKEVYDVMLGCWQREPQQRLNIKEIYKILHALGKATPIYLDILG
Chain of Death-associated protein kinase 3 (Homo sapiens) (O43293 whole entry, looked up, the tested form may be a part): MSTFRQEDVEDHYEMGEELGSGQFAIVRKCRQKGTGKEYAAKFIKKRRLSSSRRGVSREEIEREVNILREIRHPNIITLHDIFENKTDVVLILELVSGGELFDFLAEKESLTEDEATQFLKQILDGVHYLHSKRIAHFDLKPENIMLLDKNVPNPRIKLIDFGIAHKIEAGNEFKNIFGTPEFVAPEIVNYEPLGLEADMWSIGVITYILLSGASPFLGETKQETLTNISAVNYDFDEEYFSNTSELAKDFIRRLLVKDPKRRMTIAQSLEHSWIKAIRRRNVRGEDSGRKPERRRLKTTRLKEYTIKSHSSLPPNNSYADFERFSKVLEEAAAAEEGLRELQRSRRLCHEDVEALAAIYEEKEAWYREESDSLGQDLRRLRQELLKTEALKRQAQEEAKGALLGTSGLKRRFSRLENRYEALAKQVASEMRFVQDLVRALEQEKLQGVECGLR
Chain of Serine/threonine-protein kinase 4 (Homo sapiens) (Q13043 whole entry, the tested form may be a part): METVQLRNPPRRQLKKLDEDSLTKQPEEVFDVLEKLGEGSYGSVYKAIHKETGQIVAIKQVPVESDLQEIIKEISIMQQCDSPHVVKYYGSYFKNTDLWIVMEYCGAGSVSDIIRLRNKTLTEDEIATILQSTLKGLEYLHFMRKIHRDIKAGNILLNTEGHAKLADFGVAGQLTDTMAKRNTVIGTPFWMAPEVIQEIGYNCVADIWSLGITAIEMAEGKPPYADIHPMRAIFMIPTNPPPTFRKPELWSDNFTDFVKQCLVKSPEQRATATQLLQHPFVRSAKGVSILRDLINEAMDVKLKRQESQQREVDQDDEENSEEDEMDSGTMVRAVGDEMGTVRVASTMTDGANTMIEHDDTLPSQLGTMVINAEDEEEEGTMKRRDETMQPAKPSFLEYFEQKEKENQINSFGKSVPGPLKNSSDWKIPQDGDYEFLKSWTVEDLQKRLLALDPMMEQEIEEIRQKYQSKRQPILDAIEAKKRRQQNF

In the case of `O=C(Nc1cccc([C@H]2CCCN(c3ncnc4[nH]ccc34)C2)c1)Nc1ccccc1N1CCCC1`, the inhibition (commonly the percentage by which the read-out fell short of the control) in data set [1] came to 78%; in [2], 53%; in [3], 1.9%; in data set [4] it was 80%; in data set [5] it was 100%; in data set [6], 47%. For the same compound, the inhibition was 48% in data set [7]; 99% in [8]; 52% in [9]; 100% in data set [10]; 78% in data set [11]; 50% in [12]. Moreover, the solubility (usually the concentration that dissolves in the medium under given conditions) in data set [13] was less than 1 µg/mL.
For the compound `O=C(Nc1cccc([C@@H]2CN(c3ncnc4[nH]ccc34)CCN2CCO)c1)Nc1c(F)cccc1N1CCCC1`, the inhibition in data set [14] stood at 97%; in [15], 92%; in data set [16], 100%; in [17] it was 5.2%; in data set [18], 73%; in data set [19] it was 100%. The inhibition in [20] was found to be 82%; in [21] it was 76%; in data set [22], 85%; in data set [23], 67%; in data set [24], 64%; in data set [25], 75%. For the same compound, the inhibition was 80% in [26], 97% in data set [27] and 99% in data set [28].
